According to article PMC12598805, “Crystal Structure–Activity Relationship of Some MeO Phenylacrylonitriles: Dual Antimicrobial–Cytotoxic Effects and in Silico Perspectives” (ChemistryOpen, 2025):
Values after ≈ are worked out from the molar mass of the structure shown.

Experiments:
Assay type in all cases: cell-based
[1] = test system: Pseudomonas aeruginosa (ATCC 27853); experiment: Broth microdilution MIC; settings: ATCC27853, P.aeruginosa
Experimental: (§1) Pseudomonas aeruginosa (ATCC 27853) […]
(§2) ATCC: American Type Culture Collection; NRRL: Northern Regional Research Laboratory The compounds 2(a-c) obtained could only be completely solubilised with dimethyl sulphoxide (DMSO) and the highest possible stock solutions of 50 mg.mL-1 were prepared. […]
(§3) 3.1. Determination of Minimum Inhibition Concentration (MIC)
(§4) The minimum inhibition concentration (MIC) values of the compounds 2(a-c) against the test bacteria used in the study were determined according to the broth microdilution method.[1-2] MHB or SDB was used as test medium and bacterial and yeast suspensions were prepared at 0.5 Mc Farland concentration for each test bacteria. Double layer serial dilutions were prepared in "U" type 96-well microtiter plates. Medium+bacteria suspensions containing only medium in the first row, medium+bacteria in the second row and the final concentrations of the synthesised substances in the other rows between 25 mg.mL-1 and […] were added to the wells with a final volume of 200
(§5) μL. Ampicillin, Kanamycin and Amphotericin B standard antibiotics were used as positive controls.
(§6) Bacteria were incubated at 37±0.1 °C and C. albicans at 30±0.1 °C for 24-48 hours and the lowest concentration without growth was determined as MIC. Tests were performed in two parallel runs and mean values were given as a result. […]

[2] = test system: Escherichia coli (ATCC 25922); experiment: MBC by sub-culture from wells without growth; settings: ATCC25922, E.coli
Experimental: (§7) Escherichia coli (ATCC 25922) […]
as §2, §3, §4, §5, §6

[3] = test system: Bacillus subtilis (ATCC-19659); experiment: Agar diffusion, zone of inhibition; settings: B.subtilis, antibiotics at 5 mg mL^−1
Source text: (§8) The antibacterial and antifungal activities were reported utilizing the method described by the Clinical & Laboratory Standards Institute.^[ [31], [32] ^] Agar diffusion method was used to determine the antimicrobial activity of the synthesized substances. The media used were mueller hinton agar (MHA) for bacteria and sabouraud‐dextrose agar (SDA) for fungi (Merck), as recommended by the manufacturer.
(§9) The synthesized compounds were initially investigated for their antimicrobial activity to elucidate the potential therapeutic utility against various pathogenic microbes using the agar plate diffusion method. The compounds were tested at a concentration of 50 mg mL^−1, and the antibiotics (ampicillin, kanamycin, and amphotericin B) were used at 5 mg mL^−1. […] K.pneumoniae and B.cereus were resistant to ampicillin, while they were susceptible to kanamycin with inhibition values of 30 and 26 mm, respectively. No antimicrobial activity of the compounds was observed against E.faecalis, S.typhimurium, K.pneumoniae, and for the fungus compared to Amphotericin B (20 mm). […]
(§10) ATCC: American Type Culture Collection; NRRL: Northern Regional Research Laboratory The compounds 2(a-c) obtained could only be completely solubilised with dimethyl sulphoxide (DMSO) and the highest possible stock solutions of 50 mg.mL-1 were prepared. To these wells 50 μl of the previously prepared substances were transferred using sterile micropipette tips. For comparison, Ampicillin and kanamycin antibiotics for bacteria and Amphotericin B antibiotics for fungus were used as positive controls and DMSO was used as negative control. The prepared petri plates were kept at +4°C for about 1 hour and then the bacterial cultures were incubated at 37°C for 18-24 hours and mould cultures at 27-30°C for 48-72 hours. The zones formed were measured millimetrically with callipers. The experiments were performed with three repetitions. […]

[4] = test system: Enterococcus faecalis (ATCC 29212); experiment: Broth microdilution MIC; settings: ATCC29212, E.faecalis
Experimental: (§11) Enterococcus faecalis (ATCC 29212) […]
as §2, §3, §4, §5, §6

[5] = test system: Bacillus cereus (ATCC-10876); experiment: Agar diffusion, zone of inhibition; settings: B.cereus, antibiotics at 5 mg mL^−1
Source text: as §8
The synthesized compounds were initially investigated for their antimicrobial activity to elucidate the potential therapeutic utility against various pathogenic microbes using the agar plate diffusion method. The compounds were tested at a concentration of 50 mg mL^−1, and the antibiotics (ampicillin, kanamycin, and amphotericin B) were used at 5 mg mL^−1. […] K.pneumoniae and B.cereus were resistant to ampicillin, while they were susceptible to kanamycin with inhibition values of 30 and 26 mm, respectively. No antimicrobial activity of the compounds was observed against E.faecalis, S.typhimurium, K.pneumoniae, and for the fungus compared to Amphotericin B (20 mm).
Bacillus cereus (ATCC-10876) […]
as §10

[6] = test system: Staphylococcus aureus (ATCC 29213); experiment: Agar diffusion, zone of inhibition; settings: S.aureus, antibiotics at 5 mg mL^−1
Source text: as §8, §9
(§12) Staphylococcus aureus (ATCC 29213) […]
as §10

[7] = test system: Micrococcus luteus (NRRL-B-1018); experiment: Agar diffusion, zone of inhibition; settings: M.luteus, antibiotics at 5 mg mL^−1
Source text: as §8, §9
(§13) Micrococcus luteus (NRRL-B-1018) […]
as §10

[8] = test system: Klebsiella pneumoniae (ATCC-70063); experiment: Agar diffusion, zone of inhibition; settings: K.pneumoniae, antibiotics at 5 mg mL^−1
Source text: as §8, §9
Klebsiella pneumoniae (ATCC-70063)
as §10

[9] = test system: Enterococcus faecalis (ATCC 29212); experiment: MBC by sub-culture from wells without growth; settings: ATCC29212, E.faecalis
Experimental: as §11, §2, §3, §4, §5, §6

[10] = test system: Bacillus subtilis (ATCC-19659); experiment: MBC by sub-culture from wells without growth; settings: ATCC19659, B.subtilis
Experimental: as §2, §3, §4, §5, §6

[11] = test system: Pseudomonas aeruginosa (ATCC 27853); experiment: Agar diffusion, zone of inhibition; settings: P.aeruginosa, antibiotics at 5 mg mL^−1
Source text: as §8, §9, §1, §10

[12] = test system: Escherichia coli (ATCC 25922); experiment: Broth microdilution MIC; settings: ATCC25922, E.coli
Experimental: as §7, §2, §3, §4, §5, §6

[13] = test system: Enterococcus faecalis (ATCC 29212); experiment: Agar diffusion, zone of inhibition; settings: ATCC29212, E.faecalis, antibiotics at 5 mg mL^−1
Source text: as §8, §9, §11, §10

[14] = test system: Bacillus subtilis (ATCC-19659); experiment: Broth microdilution MIC; settings: ATCC19659
Experimental: as §2, §3, §4, §5, §6

[15] = test system: Micrococcus luteus (NRRL-B-1018); experiment: Broth microdilution MIC; settings: NRRLB1018, M.luteus
Experimental: as §13, §2, §3, §4, §5, §6

[16] = test system: Salmonella typhimurium (NRRL-B-4420); experiment: Agar diffusion, zone of inhibition; settings: Salmonella enterica; S.typhimurium; antibiotics at 5 mg mL^−1
Source text: as §8, §9
Salmonella typhimurium (NRRL-B-4420) […]
as §10

[17] = test system: Escherichia coli (ATCC 25922); experiment: Agar diffusion, zone of inhibition; settings: antibiotics at 5 mg mL^−1
Source text: as §8, §9, §7, §10

[18] = test system: Micrococcus luteus (NRRL-B-1018); experiment: MBC by sub-culture from wells without growth; settings: NRRLB1018, M.luteus
Experimental: as §13, §2, §3, §4, §5
(§14) Bacteria were incubated at 37±0.1 °C and C. albicans at 30±0.1 °C for 24-48 hours and the lowest concentration without growth was determined as MIC. Tests were performed in two parallel runs and mean values were given as a result. In order to estimate “the minimum bactericidal/fungicidal concentrations (MBC/MFC) of the synthesised acrylonitrile derivatives “needed to indicate […] killing of the original inoculum,” 10 μl was taken from the wells with no observed growth and further sub-cultured onto their agar media (MHA and SDA for bacterial and fungal strains, respectively).[3] […]

[19] = test system: Staphylococcus aureus (ATCC 29213); experiment: MBC by sub-culture from wells without growth; settings: ATCC29213, S.aureus
Experimental: as §12, §2, §3, §4, §5, §14

[20] = test system: Staphylococcus aureus (ATCC 29213); experiment: Broth microdilution MIC; settings: ATCC29213, S.aureus
Experimental: as §12, §2, §3, §4, §5, §6

[21] = test system: Pseudomonas aeruginosa (ATCC 27853); experiment: MBC by sub-culture from wells without growth; settings: ATCC27853, P.aeruginosa
Experimental: as §1, §2, §3, §4, §5, §14

Work on CC1(C)S[C@@H]2[C@H](NC(=O)[C@H](N)c3ccccc3)C(=O)N2[C@H]1C(=O)O [Ampicillin, reference compound] yielded an MIC [1] of 62.5 µg/mL (≈ 179 µM), an MBC [2] of 31.2 µg/mL (≈ 89.4 µM) and a zone of inhibition [3] of 32 ± 1.41 mm. For the same molecule, the zone of inhibition at 5 mg/mL ([3]; Bacillus subtilis, ATCC19659) was 32 mm, the MIC [4] was 250 µg/mL (≈ 715 µM) and the zone of inhibition [5] was “resistant”. The zone of inhibition at 5 mg/mL ([5]; Bacillus cereus, ATCC10876) was under 6 mm, the zone of inhibition [6] was 24 ± 1.41 mm and the zone of inhibition at 5 mg/mL ([6]; Staphylococcus aureus, ATCC29213) was 24 mm. For the same molecule, the zone of inhibition [7] was 44 ± 5.66 mm, the zone of inhibition at 5 mg/mL ([7]; Micrococcus luteus, NRRLB1018) was 44 mm and the zone of inhibition [8] was “resistant”. The zone of inhibition at 5 mg/mL ([8]; Klebsiella pneumoniae, ATCC70063) was under 6 mm, the MBC [9] was 250 µg/mL (≈ 715 µM) and the MBC [10] was 25000 µg/mL (≈ 71500 µM). The zone of inhibition [11] was 30 ± 0.71 mm, the zone of inhibition at 5 mg/mL ([11]; Pseudomonas aeruginosa, ATCC27853) was 30 mm and the MIC [12] was 31.2 µg/mL (≈ 89.4 µM). The zone of inhibition at 5 mg/mL [13] was 34 ± 0.71 mm, the MIC [14] was 12500 µg/mL (≈ 35800 µM) and the MIC [15] was 31.2 µg/mL (≈ 89.4 µM). For the same molecule, the zone of inhibition at 5 mg/mL [16] was 25 mm, the zone of inhibition ([17]; E.coli) was 25 ± 0.71 mm and the zone of inhibition at 5 mg/mL ([17]; Escherichia coli, ATCC25922, E.coli) was 23 mm. The MBC [18] was 31.2 µg/mL (≈ 89.4 µM), the MBC [19] was 250 µg/mL (≈ 715 µM) and the MIC [20] was 250 µg/mL (≈ 715 µM). The MBC [21] was 62.5 µg/mL (≈ 179 µM).
